Assay results as given in patent US3987175A, “Derivatives of phenoxy isobutyric acid having hypolipemizing and hypocholesterolemizing action” (Pierre Fabre S.A., priority 1974, dated 1976).
Counter-ions that a name gives are not always drawn.

How the values were obtained:
[1] = Hypercholesterolemia induced by the administration of Triton WR 1339; format: in vivo; conditions: male rats; for Cholesterol % variation / Kunkel phenol % variation: Triton 200 mg/kg IV, 18 hours
Method: 3. […] Immediately after the injection, the products to be tested were administered IP and new samples of blood taken 18 hours later (at the maximum of the hypocholesterolemia produced by the Triton). |P being the biochemical parameter under consideration | p Triton + product p Triton + product | - | + 18 hours at the start |1 - × 100 | p Triton p Triton | - | + 18 hours at the start

[2] = Acute test: cholesterol and triglycerides 4 hours after intraperitoneal administration; format: in vivo; conditions: rats
Method: The products to be studied were administered intraperitoneally to groups of identical rats; the doses were calculated on a basis of clofibrate in order to make the tests fully comparative. After a period of 4 hours, blood was removed by heart puncture and cholesterol and triglycerides determined.

[3] = Test covering 4 days of treatment by oral administration, normal diet (cholesterol, Kunkel's phenol test); format: in vivo; conditions: rats, fifth day
Description: 2. Test covering 4 days of treatment by oral administration. In a lot of 30 rats subjected to a normal diet, the blood samplings were effected and the determinations of cholesterol and lipoproteins (Kunkel's phenol test) were made on the fifth day.

[4] = Acute toxicity, LD50 (method of Miller and Tainter, mortality observed for 4 days); conditions: mouse, in vivo, mice
Description: The above-described chemical compounds were submitted to toxicity tests. The acute toxicity of certain compounds determined by the 50% lethal dose is entered in the following Table:
The LD50 was studied in accordance with the method of Miller and Tainter, the mortality of mice being observed for 4 days.

[5] = Solubility characteristics; format: physicochemical
[6] = clofibrate 200 mg/kg IP, NS (not significant)
[7] = IP, clofibrate 200 mg/kg, 4 hours
[8] = IP, F 1393 340 mg/kg, 4 hours (comparison with reference products)
[9] = acute dose study, 340 mg/kg, HS (highly significant)
[10] = nicotinic acid 100 mg/kg IP, HS (highly significant)
[11] = IP, nicotinic acid 140 mg/kg, 4 hours

SMILES: CCOC(=O)C(C)(C)Oc1ccc(Cl)cc1 [Clofibrate]
- Cholesterol % variation [1, 6]: -15%
- Kunkel phenol % variation [1, 6]: -23%
- Activity in the Triton test (in words) ([1]; Triton WR 1339): inactive
- Cholesterol % variation referred to the control [2, 7]: -17%
- Triglycerides % variation referred to the control [2, 7]: +23%
- Cholesterol % variation referred to the control ([3]; clofibrate 200 mg/kg): -34%
- Kunkel phenol test % variation referred to the control ([3]; clofibrate 200 mg/kg): -29%

SMILES: CC(C)(Oc1ccc(Cl)cc1)C(=O)OCCNC(=O)c1cccnc1 [F 1393, Hydrochloride of N-nicotinoyl, O-(p-chloro phenoxy) isobutanoyl ethanol amine]
- Cholesterol % variation ([1]; F 1393 340 mg/kg IP, HS (highly significant)): -68%
- Kunkel phenol % variation ([1]; F 1393 340 mg/kg IP, S): -89%
- Cholesterol % variation referred to the control [2, 8]: -32%
- Triglycerides % variation referred to the control [2, 8]: -43%
- Triglycerides % variation referred to the control ([2]; acute dose study, 50 mg/kg, HS (highly significant)): -26%
- Cholesterol % variation referred to the control ([2]; acute dose study, 50 mg/kg, NS (not significant)): -10%
- Cholesterol % variation referred to the control ([2]; acute dose study, 100 mg/kg): -0%
- Triglycerides % variation referred to the control ([2]; acute dose study, 100 mg/kg, HS (highly significant)): -29%
- Cholesterol % variation referred to the control ([2]; acute dose study, 200 mg/kg, HS (highly significant)): -22%
- Triglycerides % variation referred to the control ([2]; acute dose study, 200 mg/kg, S): -19%
- Cholesterol % variation referred to the control [2, 9]: -35%
- Triglycerides % variation referred to the control [2, 9]: -43%
- LD50 at 96 h ([4]; po, by mouth): 3100 mg/kg
- LD50 at 96 h ([4]; ip): 560 mg/kg
- Cholesterol % variation referred to the control ([3]; F 1393 340 mg/kg): -44%
- Kunkel phenol test % variation referred to the control ([3]; F 1393 340 mg/kg): -52%
- Solubility in N-methyl pyrrolidone ([5]; N-methyl pyrrolidone): 16%
- Solubility in ethanol [5]: 3.5%
- Solubility in propylene glycol ([5]; propylene glycol): 5%
- solubility ([5]; water): 120 mg/mL

SMILES: CC(C)(Oc1ccc(Cl)cc1)C(=O)OCCNC(=O)c1ccc[n+]([O-])c1 [F 1416, N-oxide of N-nicotinoyl, O-(parachloro phenoxy) isobutanoyl ethanol amine]
- LD50 at 96 h ([4]; po, by mouth): 2400 mg/kg
- LD50 at 96 h ([4]; ip): ≥ 1000 mg/kg
- Solubility in ethanol [5]: 3%
- Solubility in propylene alcohol ([5]; propylene alcohol): 1%
- Solubility in water (in words) ([5]; water): Insoluble

SMILES: O=C(O)c1cccnc1 [Nicotinic acid, nicotinic acid]
- Cholesterol % variation [1, 10]: -67%
- Kunkel phenol % variation [1, 10]: -75%
- Cholesterol % variation referred to the control [2, 11]: -25%
- Triglycerides % variation referred to the control [2, 11]: -47%
- Cholesterol % variation referred to the control ([3]; nicotinic acid 100 mg/kg): -22%
